Assays:
Neratinib/HKI272 = compound: CCOc1cc2ncc(C#N)c(Nc3ccc(OCc4ccccn4)c(Cl)c3)c2cc1NC(=O)/C=C/CN(C)C [Neratinib/HKI272]; test: increase in dead-cell fraction, 72 h; higher = more death;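 also: breast cancer cell lines in 384-well plates, stained with Hoechst plus LIVE/DEAD far red dye and imaged, cells above an LDR intensity threshold counted dead, Hoechst-negative corpses included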
[1] = compound: CCc1cnn2c(NCc3ccc[n+]([O-])c3)cc(N3CCCC[C@H]3CCO)nc12; test: as above
[2] = compound: CC(=O)c1c(C)c2cnc(Nc3ccc(N4CCNCC4)cn3)nc2n(C2CCCC2)c1=O; test: as above
[3] = compound: CCN1CCN(Cc2ccc(Nc3ncc(F)c(-c4cc(F)c5nc(C)n(C(C)C)c5c4)n3)nc2)CC1; test: as above
Ceritinib/LDK378 = compound: Cc1cc(Nc2ncc(Cl)c(Nc3ccccc3S(=O)(=O)C(C)C)n2)c(OC(C)C)cc1C1CCNCC1 [Ceritinib/LDK378]
Saracatinib/AZD0530 = compound: CN1CCN(CCOc2cc(OC3CCOCC3)c3c(Nc4c(Cl)ccc5c4OCO5)ncnc3c2)CC1 [Saracatinib/AZD0530]
Luminespib/NVP-AUY922 = compound: CCNC(=O)c1noc(-c2cc(C(C)C)c(O)cc2O)c1-c1ccc(CN2CCOCC2)cc1 [Luminespib/NVP-AUY922]
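For GR50, 72 h in this document: breast cancer and non-malignant breast epithelial cell lines, Deep Dye Drop or Dye Drop imaging, nine half-log doses, GR normalized to time-zero plates and DMSO-only controls.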

Row | Cell Line | increase in dead-cell fraction (Neratinib/HKI272; 0.0003162 µM) | increase in dead-cell fraction (Neratinib/HKI272; 0.001 µM) | increase in dead-cell fraction (Neratinib/HKI272; 0.003162 µM) | increase in dead-cell fraction (Neratinib/HKI272; 0.01 µM) | increase in dead-cell fraction (Neratinib/HKI272; 0.03162 µM) | increase in dead-cell fraction (Neratinib/HKI272; 0.1 µM) | increase in dead-cell fraction (Neratinib/HKI272; 0.3162 µM) | increase in dead-cell fraction (Neratinib/HKI272; 1 µM) | increase in dead-cell fraction (Neratinib/HKI272; 3.162 µM) | increase in dead-cell fraction ([1]; 0.0001 µM) | increase in dead-cell fraction ([1]; 0.0003162 µM) | increase in dead-cell fraction ([1]; 0.001 µM) | increase in dead-cell fraction ([1]; 0.003162 µM) | increase in dead-cell fraction ([1]; 0.01 µM) | increase in dead-cell fraction ([1]; 0.03162 µM) | increase in dead-cell fraction ([1]; 0.1 µM) | increase in dead-cell fraction ([1]; 0.3162 µM) | increase in dead-cell fraction ([1]; 1 µM) | increase in dead-cell fraction ([2]; 0.0003162 µM) | increase in dead-cell fraction ([2]; 0.001 µM) | increase in dead-cell fraction ([2]; 0.003162 µM) | increase in dead-cell fraction ([2]; 0.01 µM) | increase in dead-cell fraction ([2]; 0.03162 µM) | increase in dead-cell fraction ([2]; 0.1 µM) | increase in dead-cell fraction ([2]; 0.3162 µM) | increase in dead-cell fraction ([2]; 1 µM) | increase in dead-cell fraction ([2]; 3.162 µM) | increase in dead-cell fraction ([3]; 0.001 µM) | increase in dead-cell fraction ([3]; 0.003162 µM) | increase in dead-cell fraction ([3]; 0.01 µM) | increase in dead-cell fraction ([3]; 0.03162 µM) | increase in dead-cell fraction ([3]; 0.1 µM) | increase in dead-cell fraction ([3]; 0.3162 µM) | increase in dead-cell fraction ([3]; 1 µM) | increase in dead-cell fraction ([3]; 3.162 µM) | increase in dead-cell fraction ([3]; 10 µM) | GR50, 72 h (Ceritinib/LDK378) [µM] | GR50, 72 h (Saracatinib/AZD0530) [µM] | GR50, 72 h (Luminespib/NVP-AUY922) [µM]
1 | HCC1428 | 0.0076 | 0.0073 | 0.0021 | -0.0004 | 0.0008 | 0.0018 | 0.0002 | 0.0203 | 0.217 | 0.0044 | 0.0006 | 0.0016 | -0.0135 | 0.0043 | 0.283 | 0.562 | 0.64 | 0.687 | 0.005 | -0.0004 | -0.0052 | 0.0068 | 0.0017 | 0.0007 | 0.0117 | 0.0083 | 0.0097 | -0.0074 | 0.0007 | 0.0093 | 0.0115 | 0.0154 | 0.0035 | 0.0027 | 0.0224 | 0.0617 | 1.24 | > 10 | 0.00286
2 | HCC1500 | 0.0116 | -0.0067 | 0.017 | -0.0012 | 0.0316 | 0.0224 | 0.0504 | 0.0834 | 0.331 | 0.0119 | -0.0049 | 0.0055 | 0.0001 | 0.0467 | 0.285 | 0.499 | 0.456 | 0.476 | -0.0019 | 0.0086 | -0.0112 | 0.0091 | 0.0038 | 0.019 | 0.0086 | 0.009 | 0.0027 | -0.0021 | -0.0174 | -0.0129 | -0.0035 | -0.0151 | -0.0201 | -0.015 | -0.0276 | 0.0351 | 1.41 | 0.259 | 0.00847
3 | MDAMB157 | 0.0012 | 0.0066 | 0.004 | -0.0008 | 0.0016 | -0.0006 | 0.0073 | -0.0005 | 0.032 | 0 | -0.0024 | 0.0008 | 0.0027 | 0.028 | 0.41 | 0.781 | 0.834 | 0.851 | 0.0033 | 0.0064 | 0.0023 | 0.0015 | 0.0013 | 0.0006 | -0.002 | -0.0042 | -0.0011 | -0.0027 | -0.0032 | -0.0032 | 0.0011 | 0.0051 | 0.0141 | 0.0387 | 0.0737 | 0.48 | 0.484 | 5.23 | 0.00418

Reference: the supplement of paper PMC9663587
